The source made the active and inactive calls. The rule behind the calls is not given here.

We go through 2 molecules from ChEMBL document CHEMBL6127029, “Glutathione-dependent degradation of SMARCA2/4 for targeted lung cancer therapy with improved selectivity” (Eur J Med Chem, 2024).

One data set has as its system A549. As to the kind of experiment: Reduction in intracellular GSH level in human A549 cells by measuring decrease in fluorescence signal at 10 uM incubated for 10 mins in presence of GSH scavenger NEM by fluorescence microscopic analysis. Format: functional, cell-based.
The nature of data set [1]: Stability of the compound in cell culture medium containing 10% fetal bovine serum at 50 uM incubated for 12 hrs by HPLC analysis. Format: physicochemical, cell-free. Particulars: cattle.
Data set [2] in a line: Stability of the compound in cell culture medium containing 10% fetal bovine serum assessed as drug degradation at 50 uM incubated for 12 hrs by HPLC analysis. The data set is classed as physicochemical, cell-free. Particulars: cattle, read-out: Drug degradation.

In the case of `CCN(CCN1C(=O)C=CC1=O)c1ccc2c(C)cc(=O)oc2c1`, in the data set on A549, the result was Active.
Turning to `Cc1ncsc1-c1ccc(CNC(=O)[C@@H]2C[C@@H](O)CN2C(=O)[C@@H](NC(=O)CN2CCN(c3cc(-c4ccccc4OS(=O)(=O)c4ccc([N+](=O)[O-])c(F)c4)nnc3N)CC2)C(C)(C)C)cc1`, the Stability entry in data set [1] was “Unstable”. Besides, the degraded at 12 h, 50 µM in data set [2] is greater than 60%.
